In general, AUC(0-inf) refers to total exposure, with the tail of the curve extrapolated. Read a high AUC(0-inf) as more exposure. As usually defined, the MRT is a mean duration of stay, worked out from the concentration-time curve. For orientation: Vd means a proportionality between amount in the body and measured concentration, not a real space. Lower therefore signals little distribution into tissue. As usually defined, the half-life is the time in which the quantity being followed falls by half. Read a low half-life as rapid decline.

These results are taken from patent US20230391841A1, “MACROCYCLIC PEPTIDES” (Herantis Pharma OYJ, priority 2019, published 2023).

Bridge positions count the residues as written; N and C are the ends. Peptide text beside a SMILES is read from it.

Data set [1] is described as follows: In vivo pharmacokinetics after intravenous administration to rats. The conditions noted are these: for AUC(0-inf) / MRT / Vd / half-life / clearance: rat, 5 mg/kg intravenous bolus, male Sprague-Dawley rats; for AUC(0-inf) / MRT / Vd / half-life: in vivo; for clearance: plasma, read-out: CI. Also noted: species or system male Sprague-Dawley rats. How it is done:
The clearance and elimination of peptides can be mediated by multiple processes in vivo, including metabolism and renal elimination.
Test compounds were intravenously (i.v.) administered to male Spraque-Dawley rats (about is six weeks old, n=3 per compound) at 5 mg/kg. Blood samples were collected from jugular vein through implanted in-dwelling catheters (250 pl blood) into labelled polypropylene tubes containing anticoagulant (heparin) at 2 min, 5 min,15 min, 30 min, 1 h, 2 h and 4 h after compound administration and held on wet ice for a maximum of 30 minutes. The blood samples were centrifuged for plasma separation (4 °C, 21100 G, 5 min). Tolbutamide 500ng/ml with 10% TFA in acetonitrile or in MeCN was used as an internal standard solution.
The standard samples were prepared into rat plasma by spiking the matrix into concentrations 2-10 000 ng/ml of the analyte, respectively, and otherwise treated as the samples. To 50 pl aliquots of sample plasma was added 200 pl of internal standard. Samples were mixed (150 rpm, 15 min) and centrifugated (3000 rpm, 15min). The analytical method was optimized for reaction monitoring chromatographic (peak shape & retention) shifts and mass spectrometric properties (ionization efficiency, MS/MS detection). Supernatants were analyzed by UHPLC-TOF mass spectrometry using electrospray ionization.

The test system of data set [2] is 3D in vitro model of blood-brain barrier. In words: Permeation in a 3D in vitro model of blood-brain barrier. The class given is in vitro ADME, human endothelial cells, rat astrocytes and cortical neurons. The conditions noted are these: 500 nM, 2 h. How it is done:
Due to the interest of developing CDNF- and MANF-derived peptides for treatment of CNS diseases with peripheral route of administration, and the fact that macrocyclization can improve cell-penetration and distribution properties of peptides, the ability of the compounds to pass the blood-brain barrier was tested in an established in vitro model of the blood-brain barrier. For this purpose, macrocyclic and linear compounds were incubated at 500 nM for 2 h in a two-compartment in vitro blood-brain barrier model (n=4) followed by sample collection is and LC-MS/MS analysis.
Primary culture of astrocytes. Rat astrocytes were prepared from a E15 embryos. Briefly, pregnant female rats (Wistar, Janvier Labs) of 15 days of gestation were deeply anesthetized in a (CO2 chamber) and then killed by cervical dislocation. Fetuses were collected and immediately placed in ice-cold L15 Leibovitz medium with a 2% penicillin (10,000 U/mL) and streptomycin (10 mg/mL) solution (PS) and 1% bovine serum albumin (BSA). Full brains were treated for 20 min at 37° C. with a trypsin- EDTA solution at a final concentration of 0.05% trypsin and 0.02% EDTA. Dissociated cells were cultured in DMEM 10% fetal calf serum. Purified astrocytes were used at passage 4 (P4).
Culture of human endothelial cells. A vial of HBMEC (Primary Human Brain Microvascular Endothelial Cells, ACBRI 376) was used at a specific passage 8 (P8).
Primary culture of cortical neurons. Rat cortical neurons were cultured as described by Callizot et al., 2013 with modification. Briefly, pregnant female rats (Wistar, Janvier Labs) of […] were deeply anesthetized in a CO2 chamber and then killed by cervical io dislocation. Fetuses were collected and immediately placed in ice-cold L15 Leibovitz medium with a 2% penicillin (10,000 U/mL) and streptomycin (10 mg/mL) solution (PS) and 1% bovine serum albumin (BSA). Cortices were treated for 20 min at 37° C. with a trypsin-EDTA solution at a final concentration of 0.05% trypsin and 0.02% EDTA. The dissociation was stopped by addition of Dulbecco's modified Eagle's medium (DMEM) with 4.5 g/L of glucose, containing is DNAse I grade II (final concentration 0.5 mg/m L) and 10% fetal calf serum (FCS). Cells were mechanically dissociated by three forced passages through the tip of a 10-m1 pipette. Cells were then centrifuged at 515×g for 10 min at 4° C. The pellet resuspended in a defined culture medium consisting of Neurobasal medium with a 2% solution of B27 supplement, 2 mmol/L of L-glutamine, 2% of PS solution, 10 ng/mL of brain-derived neurotrophic factor (BDNF). Viable cells were counted in a Neubauer cytometer, using the trypan blue exclusion test. The cortical neurons were seeded in the bottom of well pre-coated with poly-L-lysine at a density of 255,000 per well in 24-well plate with insert and cultured at 37° C. in an air (95%)-CO2 (5%) incubator. The culture medium was changed every other day.
Co-Culture of endothelial cells, astrocytes and primary cortical neurons. The procedure was performed as previously published (Xue et al., 2013 with modifications, Callizot et al., 2017). Briefly, on day 0, purified astrocytes (P4) were rapidly thawed in a water bath at 37° C. The cells were immediately put in DMEM containing 10% of FCS. Cell suspension was centrifuged at 515×g for 5 min at 4° C. and the pellets were suspended in DMEM F12 containing 10% of FCS. Cells were seeded in the outer side of the insert membrane (PET, 1 μm) at the density of 45,000 cells per insert and cultured at 37° C. in an air (95%)-CO2 (5%) incubator. Thirty-six (36) hours after the astrocytes seeding, HBMEC (P8) were rapidly thawed in a water bath at 37° C. and immediately put in DMEM containing 10% of FCS. Cell suspension was centrifuged at 515×g for 5 min at 4° C. and the pellets were suspended in EGM-2 bullet kit containing 5% of FCS, 1% of PS solution, 1.4 μM of Hydrocortisone, 5 μg/mL of acid ascorbic, 1% of lipid mixture, 10 mM of HEPES, 1 ng/mL of bFGF. […]

Turning to `CC[C@H](C)[C@@H]1NC(=O)[C@H](CCC(N)=O)NC(=O)[C@H](CCCCN)NC(=O)[C@H](CC(C)C)NC(=O)[C@H](CCC(=O)O)NC(=O)[C@H](C)NC(=O)[C@H](C(C)C)NC(=O)[C@H](CCCNC(=N)N)NC(=O)[C@H](CCSC)NC(=O)[C@H](CCCCN)NC(=O)[C@H](CCCNC(=N)N)NC(=O)[C@H](CC(C)C)NC(=O)[C@H](CC(=O)O)NC(=O)[C@H](C(C)C)NC(=O)[C@H](CCC(=O)O)NC(=O)[C@H](C)NC(=O)[C@@H]2CSSC[C@H](NC(=O)[C@H](CCC(=O)O)NC(=O)[C@H](CCC(=O)O)NC(=O)CNC(=O)[C@H](Cc3c[nH]c4ccccc34)NC(=O)[C@H](CO)NC(=O)[C@H](Cc3c[nH]cn3)NC(=O)[C@H](CC(C)C)NC1=O)C(=O)N[C@@H](CCCNC(=N)N)C(=O)N[C@@H](C)C(=O)N2` [Compound 2] (cyclo(ACAEVDLRKMRVAELKQILHSWGEECR); disulfide 2-26), in data set [1], the AUC(0-inf) is 4440 ng·h/mL, the MRT is 1.01 min, the Vd amounted to 0.02 L/kg and the half-life stood at 3.78 min. The clearance in data set [1] is 20.6 mL/min/kg. In addition, the “ability to pass through the in vitro blood-brain barrier as compared to linear counterpart” value (shortened to “ability … compared to linear counterpart”) in data set [2] is listed as “improved ability to pass”.
Turning to `CC[C@H](C)[C@@H]1NC(=O)[C@H](CCC(N)=O)NC(=O)[C@H](CCCCN)NC(=O)[C@H](CC(C)C)NC(=O)[C@H](CCC(=O)O)NC(=O)[C@H](C)NC(=O)[C@H](C(C)C)NC(=O)[C@H](CCCNC(=N)N)NC(=O)[C@H](CCSC)NC(=O)[C@H](CCCCN)NC(=O)[C@H](CCC(=O)O)NC(=O)[C@H](C)NC(=O)[C@@H]2CSSC[C@H](NC(=O)[C@H](CCC(=O)O)NC(=O)[C@H](CCC(=O)O)NC(=O)CNC(=O)[C@H](Cc3c[nH]c4ccccc34)NC(=O)[C@H](CO)NC(=O)[C@H](Cc3c[nH]cn3)NC(=O)[C@H](CC(C)C)NC1=O)C(=O)N[C@@H](CCCNC(=N)N)C(=O)N[C@@H](C)C(=O)N2` [Compound 6] (cyclo(ACAEKMRVAELKQILHSWGEECR); disulfide 2-22), in data set [2], the “ability … compared to linear counterpart” value is on record as “improved ability to pass”.
`CC[C@H](C)[C@@H]1NC(=O)[C@H](CCCCN)NC(=O)[C@H](CCCCN)NC(=O)[C@H](CC(C)C)NC(=O)[C@H](CCC(=O)O)NC(=O)[C@H](CCCCN)NC(=O)[C@H](C(C)C)NC(=O)[C@H](CCCNC(=N)N)NC(=O)[C@H](CC(C)C)NC(=O)[C@H](CCCCN)NC(=O)[C@H](CCC(=O)O)NC(=O)[C@H](C)NC(=O)[C@@H]2CSSC[C@H](NC(=O)[C@H]([C@@H](C)O)NC(=O)[C@H](CCC(=O)O)NC(=O)CNC(=O)[C@H](Cc3c[nH]c4ccccc34)NC(=O)[C@H](CC(=O)O)NC(=O)[C@H](CC(=O)O)NC(=O)[C@H](CC(C)C)NC1=O)C(=O)N[C@@H](CCCCN)C(=O)NCC(=O)N2` [Compound 8] (cyclo(AEKLRVKELKKILDDWGETCKGC); disulfide 20-23): in data set [2], the “ability … compared to linear counterpart” value is “improved ability to pass”.
In data set [1], `CC[C@H](C)[C@@H]1NC(=O)[C@H](CO)NC(=O)[C@H](CCCCN)NC(=O)[C@H](CCC(=O)O)NC(=O)[C@H](C)NC(=O)[C@@H]2CSSC[C@H](NC(=O)[C@H]([C@@H](C)O)NC(=O)[C@H](CCC(=O)O)NC(=O)CNC(=O)[C@H](Cc3c[nH]c4ccccc34)NC(=O)[C@H](CC(=O)O)NC(=O)[C@H](CC(=O)O)NC(=O)[C@H](CC(C)C)NC1=O)C(=O)N[C@@H](CCCCN)C(=O)NCC(=O)N2` [Compound 10, KSILDDWGETCKGCAE] (cyclo(AEKSILDDWGETCKGC); disulfide 13-16) gave an AUC(0-inf) of 2140 ng·h/mL, an MRT of 1.2 min, a Vd of 0.05 L/kg and a half-life of 3.6 min. In addition, in data set [1], the clearance worked out at 39.9 mL/min/kg.
`C[C@@H]1NC(=O)[C@@H]2CSSC[C@H](NC(=O)[C@H](CCC(=O)O)NC(=O)[C@H](CCC(=O)O)NC(=O)CNC(=O)[C@H](Cc3c[nH]c4ccccc34)NC(=O)[C@H]([C@@H](C)O)NC(=O)[C@H](CCCCN)NC(=O)[C@H](CCC(=O)O)NC1=O)C(=O)N[C@@H](CCCNC(=N)N)C(=O)N[C@@H](C)C(=O)N2` [Compound 12, WGEECRACAEKT] (cyclo(ACAEKTWGEECR); disulfide 2-11): the “ability … compared to linear counterpart” value in data set [2] is given as “improved ability to pass”.
Regarding `C[C@@H]1NC(=O)[C@@H]2CSSC[C@H](NC(=O)[C@H]([C@@H](C)O)NC(=O)[C@H](CCC(=O)O)NC(=O)CNC(=O)[C@H](Cc3c[nH]c4ccccc34)NC(=O)[C@H](CO)NC(=O)[C@H](CCCCN)NC(=O)[C@H](CCC(=O)O)NC1=O)C(=O)N[C@@H](CCCCN)C(=O)NCC(=O)N2` [Compound 14, WGETCKGCAEKS] (cyclo(AEKSWGETCKGC); disulfide 9-12), the “plasma half-life, volume of distribution and mean residence time” value in data set [1] (intravenous administration to rats) is “improved”. In data set [1] (intravenous, 5 mg/kg, rats), the blood retention behavior entry is “improved blood retention behavior” and the “time detected in the plasma after administration” value was no less than 2 h. In data set [1], this compound gave an AUC(0-inf) of 4970 ng·h/mL, an MRT of 7.05 min, a Vd of 0.12 L/kg and a half-life of 15.8 min. The clearance in data set [1] is 16.8 mL/min/kg. Besides, the “ability … compared to linear counterpart” value in data set [2] was “improved ability to pass”.
Take `C[C@@H]1NC(=O)CNC(=O)[C@H](CCCNC(=N)N)NC(=O)[C@@H]2CSSC[C@H](NC1=O)C(=O)N[C@@H](C)C(=O)N[C@@H](CCC(=O)O)C(=O)N[C@@H](CCCCN)C(=O)N[C@@H]([C@@H](C)O)C(=O)N[C@@H](Cc1c[nH]c3ccccc13)C(=O)NCC(=O)N[C@@H](CCC(=O)O)C(=O)N[C@@H](CCC(=O)O)C(=O)N2` [Compound 24, WGEECRGACAEKT] (cyclo(ACAEKTWGEECRG); disulfide 2-11): the “ability … compared to linear counterpart” value in data set [2] is recorded as “improved ability to pass”.
Turning to `C[C@@H]1NC(=O)[C@@H]2CSSC[C@H](NC(=O)[C@H]([C@@H](C)O)NC(=O)[C@H](CCC(=O)O)NC(=O)CNC(=O)[C@H](Cc3c[nH]c4ccccc34)NC(=O)[C@H](CO)NC(=O)[C@H](CCCCN)NC(=O)[C@H](CCC(=O)O)NC1=O)C(=O)N[C@@H](CCCCN)C(=O)NCC(=O)NCC(=O)N2` [Compound 26, WGETCKGGCAEKS] (cyclo(AEKSWGETCKGGC); disulfide 9-13), the “ability … compared to linear counterpart” value in data set [2] is given as “improved ability to pass”.
